The record followed here is patent US20220324965A1, “COMBINATION THERAPY INVOLVING ANTIBODIES AGAINST CLAUDIN 18.2 AND IMMUNE CHECKPOINT INHIBITORS FOR TREATMENT OF CANCER” (Astellas Pharma Inc., priority 2019, published 2022).

Format in all cases: in vivo
In experiment [1] the test system is CLS-103 LVT-murinCLDN18.2 syngeneic tumors. Nature of the experiment: Efficacy of IMAB362 plus anti-mPD-1 antibody in subcutaneous syngeneic gastric carcinoma model, endpoint day 14 (Example 1). To be noted: female Crl:NMRI(Han) mice, n=12 per group, IMAB362 800 μg/mouse, anti-mPD-1 antibody 100 μg/mouse, intraperitoneal twice per week, vs Rituximab/isotype control group. An excerpt:
In order to determine whether a combination of an anti-CLDN18.2 antibody and an immune checkpoint inhibitor provides improved anti-tumor activity over the single agents alone in vivo, anti-tumor activity of IMAB362 in combination with an anti-mPD-1 antibody was examined in a subcutaneously transplanted syngeneic gastric carcinoma model in immunocompetent outbred Crl:NMRI(Han) mice using CLS-103 cells with lentiviral transduction of murine CLDN18.2 (CLS-103 […]). Rituximab was used as an isotype control of IMAB362.
(§1) • Anti-CLDN18.2 antibody: IMAB362 (Astellas Pharma Inc.) • control antibody: Rituximab BS Intravenous Infusion [KHK] […]
Lentivirally transduced mouse CLDN18.2 expressing tumor cells (CLS-103 LVT-murinCLDN18.2) were engrafted subcutaneously into the right flank of female Crl:NMRI(Han) mice (10-week-old) at 2×10^6 cells/mouse. Mice were randomized based on tumor volume measured 2 days after engraftment into 4 groups (n=12 per group). […] Tumors were measured twice per week. […] Tumor volume was determined by length×width×width×0.5. Tumor growth inhibition (TGI[%]) of each group was calculated using the equation described below. […]

Experiment [2] shares this test system. Nature of the experiment: Long-term efficacy of IMAB362 plus anti-mPD-1 antibody in subcutaneous syngeneic gastric carcinoma model, up to day 28 (Example 2). To be noted: IMAB362 800 μg/mouse, anti-mPD-1 antibody 100 μg/mouse, intraperitoneal twice per week.
Excerpt: In order to determine whether a combination of an anti-CLDN18.2 antibody and an immune checkpoint inhibitor improves anti-tumor activity over the single agents alone in vivo in long-term period, anti-tumor activity of IMAB362 in combination with an anti-mPD-1 antibody was examined up to day 28 in a subcutaneously transplanted syngeneic gastric carcinoma model in immunocompetent outbred Crl:NMRI(Han) mice using CLS-103 cells with lentiviral transduction of murine CLDN18.2 (CLS-103 LVT-murinCLDN18.2). Rituximab was used as an isotype control of IMAB362.
as §1
Lentivirally transduced mouse CLDN18.2 expressing tumor cells (CLS-103 LVT-murinCLDN18.2) were engrafted subcutaneously into the right flank of female Crl:NMRI(Han) mice (11-week-old) at 2×10^6 cells/mouse. Mice were randomized based on tumor volume measured 2 days after engraftment into 4 groups (n=12 per group). […] Tumors were measured twice per week. […] Tumor volume was determined by length×width×width×0.5. Mean tumor volume was calculated up to day 21 since 1 of 12 mice in the Rituximab/isotype treated group, as well as in the anti-mPD-1 antibody single agent group, was sacrificed due to tumor size being over 2000 mm^3. […] Complete regression (CR) was determined up to day 28 as the tumor volume of individual regressed to zero. […]

Experiment [3] has the same test system. Nature of the experiment: Efficacy of IMAB362 plus anti-mCTLA-4 antibody in subcutaneous syngeneic gastric carcinoma model, endpoint day 14 (Example 3). Particulars: n=12 per group, IMAB362 800 μg/mouse, anti-mCTLA-4 antibody 300 μg/mouse, intraperitoneal twice per week, vs Rituximab/isotype control group.
Excerpt: In order to determine whether a combination of an anti-CLDN18.2 antibody and an immune checkpoint inhibitor improves anti-tumor activity over the single agents alone in vivo, anti-tumor activity of IMAB362 in combination with an anti-mCTLA-4 antibody was examined in a subcutaneously transplanted syngeneic gastric carcinoma model in immunocompetent outbred Crl:NMRI(Han) mice using CLS-103 cells with lentiviral transduction of murine CLDN18.2 (CLS-103 LVT-murinCLDN18.2). Rituximab was used as an isotype control of IMAB362.
as §1
(§2) Lentivirally transduced mouse CLDN18.2 expressing tumor cells (CLS-103 LVT-murinCLDN18.2) were engrafted subcutaneously into the right flank of female Crl:NMRI(Han) mice (11-week-old) at 2×10^6 cells/mouse. Mice were randomized based on tumor volume measured 2 days after engraftment into 4 groups (n=12 per group). […] Tumors were measured twice per week. […] Tumor volume was determined by length×width×width×0.5. Tumor growth inhibition (TGI [%]) or tumor regression rate (TRR [%]) of each group was calculated using the equations described below. […]

For experiment [4] the test system is unchanged. Nature of the experiment: Efficacy of IMAB362 plus anti-mPD-L1 antibody in subcutaneous syngeneic gastric carcinoma model, endpoint day 14 (Example 4). Particulars: n=12 per group, IMAB362 800 μg/mouse, anti-mPD-L1 antibody 300 μg/mouse, intraperitoneal twice per week, vs Rituximab/isotype control group.
Excerpt: In order to determine whether a combination of an anti-CLDN18.2 antibody and an immune checkpoint inhibitor improves anti-tumor activity over the single agents alone in vivo, anti-tumor activity of IMAB362 in combination with an anti-mPD-L1 antibody was examined in a subcutaneously transplanted syngeneic gastric carcinoma model in immunocompetent outbred Crl:NMRI(Han) mice using CLS-103 cells with lentiviral transduction of murine CLDN18.2 (CLS-103 LVT-murinCLDN18.2). Rituximab was used as an isotype control of IMAB362.
as §1, §2

With “IMAB362: chimeric IgG1 antibody directed against CLDN18.2; heavy chain SEQ ID NO: 51, light chain SEQ ID NO: 24”, the “Tumor growth inhibition (TGI)” value in experiment [1] came to 50%; in experiment [2] (day 21, n=12 per group, vs Rituximab/isotype control group), 40%; in experiment [3] it was 72%; in experiment [4], 60%. Moreover, in experiment [2] (day 28, CR = tumor volume regressed to zero), the “number of mice with complete regression (CR) in the group of 12 mice” value came out at 2.
